Test results taken from ChEMBL document CHEMBL5303573, “Mapping human microbiome drug metabolism by gut bacteria and their genes” (Nature, 2019).

Tests used:
[1] = The drug is tested on Bacteroides coprophilus strain: DSM18228 for biotransformation. The drug concentrations were measured before and after a 12-h incubation by liquid-chromatography-coupled mass spectrometry (LC–MS); conditions: 2 µM
[2] = The drug is tested on Ruminococcus lactaris strain: ATCC29176 for biotransformation. The drug concentrations were measured before and after a 12-h incubation by liquid-chromatography-coupled mass spectrometry (LC–MS); conditions: 2 µM
[3] = (§1) The drug is tested on Collinsella aerofaciens strain: ATCC25986 for biotransformation. The drug concentrations were measured before and after a 12-h incubation by liquid-chromatography-coupled mass spectrometry (LC–MS); conditions: 2 µM
[4] = The drug is tested on Escherichia coli strain: BW25113 for biotransformation. The drug concentrations were measured before and after a 12-h incubation by liquid-chromatography-coupled mass spectrometry (LC–MS); conditions: 2 µM
Flavodoxin = molecular target: T1, Flavodoxin (Collinsella aerofaciens, UniProt A4ED08); assay: as §1; format: ADME; set-up: dose 2 uM; conditions: 2 µM
T1 sequence (A4ED08 whole entry): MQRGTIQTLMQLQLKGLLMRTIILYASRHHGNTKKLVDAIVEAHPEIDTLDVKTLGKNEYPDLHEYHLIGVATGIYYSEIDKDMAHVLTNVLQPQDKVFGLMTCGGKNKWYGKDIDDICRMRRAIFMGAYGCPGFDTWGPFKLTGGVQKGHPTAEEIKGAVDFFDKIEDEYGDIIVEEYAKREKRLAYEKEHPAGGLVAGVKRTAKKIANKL

GDSL-like protein [5] = molecular target: T2, GDSL-like protein (Collinsella aerofaciens, UniProt A4E8S4); assay: as §1; format: ADME; set-up: dose 2 uM; conditions: 2 µM
T2 sequence (A4E8S4 whole entry): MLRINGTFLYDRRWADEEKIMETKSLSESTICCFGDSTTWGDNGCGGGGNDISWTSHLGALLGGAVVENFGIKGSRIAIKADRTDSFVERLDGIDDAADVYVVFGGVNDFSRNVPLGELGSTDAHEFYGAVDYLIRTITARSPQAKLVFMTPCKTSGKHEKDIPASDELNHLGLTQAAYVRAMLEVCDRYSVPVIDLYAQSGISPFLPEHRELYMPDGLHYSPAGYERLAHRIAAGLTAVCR

Diguanylate cyclase = molecular target: T3, Diguanylate cyclase (Collinsella aerofaciens, UniProt A4EB91); assay: as §1; format: ADME; set-up: dose 2 uM; conditions: 2 µM
T3 sequence (A4EB91 whole entry): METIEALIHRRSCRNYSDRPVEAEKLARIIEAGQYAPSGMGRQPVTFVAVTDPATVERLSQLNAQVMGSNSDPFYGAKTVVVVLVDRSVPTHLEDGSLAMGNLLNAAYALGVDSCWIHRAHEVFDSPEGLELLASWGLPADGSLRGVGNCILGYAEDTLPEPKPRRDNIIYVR

GDSL-like protein [6] = molecular target: T4, GDSL-like protein (Collinsella aerofaciens, UniProt A4E7D0); assay: as §1; format: ADME; set-up: dose 2 uM; conditions: 2 µM
T4 sequence (A4E7D0 whole entry): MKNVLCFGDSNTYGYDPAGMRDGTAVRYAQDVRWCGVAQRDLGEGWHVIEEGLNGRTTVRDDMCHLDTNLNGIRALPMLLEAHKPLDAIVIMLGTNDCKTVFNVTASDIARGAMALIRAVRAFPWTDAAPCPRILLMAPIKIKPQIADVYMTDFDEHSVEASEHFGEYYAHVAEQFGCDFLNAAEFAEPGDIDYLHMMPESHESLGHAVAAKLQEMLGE

[7] = molecular target: T5, Pyridine nucleotide-disulfide oxidoreductase (Collinsella aerofaciens, UniProt A4EBM5); assay: as §1; format: ADME; set-up: dose 2 uM; conditions: 2 µM
T5 sequence (A4EBM5 whole entry): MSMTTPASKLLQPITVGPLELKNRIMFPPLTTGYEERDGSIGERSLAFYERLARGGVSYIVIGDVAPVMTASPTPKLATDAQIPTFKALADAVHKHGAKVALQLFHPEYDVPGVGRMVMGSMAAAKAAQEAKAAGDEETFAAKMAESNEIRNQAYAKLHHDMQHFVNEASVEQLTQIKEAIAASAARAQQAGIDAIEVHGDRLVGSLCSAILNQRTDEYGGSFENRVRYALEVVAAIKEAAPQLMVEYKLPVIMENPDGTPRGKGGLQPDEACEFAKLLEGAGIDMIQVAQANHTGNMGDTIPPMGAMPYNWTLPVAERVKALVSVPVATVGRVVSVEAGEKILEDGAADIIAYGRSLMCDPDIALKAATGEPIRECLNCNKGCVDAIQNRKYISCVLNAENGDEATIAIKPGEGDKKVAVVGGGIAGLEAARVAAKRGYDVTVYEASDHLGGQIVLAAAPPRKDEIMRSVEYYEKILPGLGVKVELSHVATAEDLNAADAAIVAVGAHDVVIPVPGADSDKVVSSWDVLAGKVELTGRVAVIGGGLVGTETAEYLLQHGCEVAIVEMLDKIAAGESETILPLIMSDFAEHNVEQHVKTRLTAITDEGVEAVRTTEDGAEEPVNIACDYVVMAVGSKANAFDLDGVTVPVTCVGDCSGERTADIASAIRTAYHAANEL

[8] = victivallis vadensis, 12 h, 2 µM
Description: The drug is tested on Victivallis vadensis strain: ATCC BAA-548 for biotransformation. The drug concentrations were measured before and after a 12-h incubation by liquid-chromatography-coupled mass spectrometry (LC–MS)

[9] = The drug is tested on Eggerthella lenta strain: ATCC25559 for biotransformation. The drug concentrations were measured before and after a 12-h incubation by liquid-chromatography-coupled mass spectrometry (LC–MS); conditions: 2 µM
[10] = clostridioides difficile, 12 h, 2 µM
Description: The drug is tested on Clostridium difficile strain: 120 for biotransformation. The drug concentrations were measured before and after a 12-h incubation by liquid-chromatography-coupled mass spectrometry (LC–MS)

[11] = The drug is tested on Eubacterium biforme strain: DSM3989 for biotransformation. The drug concentrations were measured before and after a 12-h incubation by liquid-chromatography-coupled mass spectrometry (LC–MS); conditions: holdemanella biformis, 2 µM
[12] = The drug is tested on Providencia alcalifaciens strain: DSM30120 for biotransformation. The drug concentrations were measured before and after a 12-h incubation by liquid-chromatography-coupled mass spectrometry (LC–MS); conditions: 2 µM
[13] = The drug is tested on Clostridium spiroforme strain: DSM1552 for biotransformation. The drug concentrations were measured before and after a 12-h incubation by liquid-chromatography-coupled mass spectrometry (LC–MS); conditions: thomasclavelia spiroformis, 2 µM
[14] = The drug is tested on Bacteroides fragilis strain: T(B)9 for biotransformation. The drug concentrations were measured before and after a 12-h incubation by liquid-chromatography-coupled mass spectrometry (LC–MS); conditions: 2 µM
[15] = The drug is tested on Subdoligranulum variabile strain: DSM15176 for biotransformation. The drug concentrations were measured before and after a 12-h incubation by liquid-chromatography-coupled mass spectrometry (LC–MS); conditions: 2 µM

| Structure (SMILES) | Bacterial Biotransformation [1] | Bacterial Biotransformation [2] | Bacterial Biotransformation [3] | Bacterial Biotransformation [4] | Bacterial Biotransformation (Flavodoxin) | Bacterial Biotransformation (GDSL-like protein [5]) | Bacterial Biotransformation (Diguanylate cyclase) | Bacterial Biotransformation (GDSL-like protein [6]) | Bacterial Biotransformation [7] | Bacterial Biotransformation [8] | Bacterial Biotransformation [9] | Bacterial Biotransformation [15] | Bacterial Biotransformation [10] | Bacterial Biotransformation [11] | Bacterial Biotransformation [12] | Bacterial Biotransformation [13] | Bacterial Biotransformation [14] |
| --- | --- | --- | --- | --- | --- | --- | --- | --- | --- | --- | --- | --- | --- | --- | --- | --- | --- |
| CNCC[C@H](Oc1cccc2ccccc12)c1cccs1 [DULOXETINE] | Compound metabolized |  | Compound metabolized | Compound metabolized |  |  |  |  |  | Compound NOT metabolized | Compound NOT metabolized |  | Compound metabolized | Compound NOT metabolized | Compound metabolized | Compound NOT metabolized | Compound metabolized |
| CC(=O)OCC(CCn1cnc2cnc(N)nc21)COC(C)=O [FAMCICLOVIR] | Compound metabolized | Compound NOT metabolized | Compound NOT metabolized |  | Compound NOT metabolized | Compound metabolized | Compound NOT metabolized | Compound NOT metabolized | Compound NOT metabolized | Compound metabolized |  |  |  |  |  |  |  |
| COC(=O)Nc1nc2ccc(C(=O)c3ccccc3)cc2[nH]1 [MEBENDAZOLE] | Compound NOT metabolized |  |  | Compound NOT metabolized |  |  |  |  |  | Compound NOT metabolized |  | Compound NOT metabolized | Compound NOT metabolized | Compound NOT metabolized | Compound NOT metabolized | Compound NOT metabolized | Compound metabolized |
| N#Cc1ccc2c(c1)N(CCCN1CCC(O)CC1)c1ccccc1S2 [PERICIAZINE] |  |  | Compound NOT metabolized | Compound NOT metabolized | Compound NOT metabolized | Compound NOT metabolized | Compound NOT metabolized | Compound NOT metabolized | Compound NOT metabolized | Compound NOT metabolized | Compound NOT metabolized | Compound NOT metabolized |  |  |  |  |  |

The next lines start with results.

| Bacterial Biotransformation [1] | Bacterial Biotransformation [2] | Bacterial Biotransformation [3] | Bacterial Biotransformation [4] | Bacterial Biotransformation (Flavodoxin) | Bacterial Biotransformation (GDSL-like protein [5]) | Bacterial Biotransformation (Diguanylate cyclase) | Bacterial Biotransformation (GDSL-like protein [6]) | Bacterial Biotransformation [7] | Bacterial Biotransformation [8] | Bacterial Biotransformation [9] | Bacterial Biotransformation [15] | Structure (SMILES) | Bacterial Biotransformation [10] | Bacterial Biotransformation [11] | Bacterial Biotransformation [12] | Bacterial Biotransformation [13] | Bacterial Biotransformation [14] |
| --- | --- | --- | --- | --- | --- | --- | --- | --- | --- | --- | --- | --- | --- | --- | --- | --- | --- |
| Compound NOT metabolized | Compound NOT metabolized | Compound metabolized | Compound metabolized | Compound NOT metabolized | Compound metabolized | Compound NOT metabolized | Compound NOT metabolized | Compound NOT metabolized | Compound metabolized |  |  | CC(=O)OCC(=O)[C@@]1(OC(C)=O)[C@@H](C)C[C@H]2[C@@H]3C[C@H](F)C4=CC(=O)C=C[C@]4(C)[C@@]3(F)[C@@H](O)C[C@@]21C [DIFLORASONE DIACETATE] |  |  |  |  |  |
| Compound metabolized | Compound metabolized | Compound metabolized | Compound NOT metabolized | Compound NOT metabolized | Compound NOT metabolized | Compound NOT metabolized | Compound NOT metabolized | Compound NOT metabolized | Compound metabolized | Compound metabolized |  | COc1ccc([C@@H]2Sc3ccccc3N(CCN(C)C)C(=O)[C@@H]2OC(C)=O)cc1 [DILTIAZEM] |  |  |  |  |  |
| Compound NOT metabolized |  | Compound NOT metabolized | Compound NOT metabolized | Compound NOT metabolized | Compound NOT metabolized | Compound NOT metabolized | Compound NOT metabolized | Compound NOT metabolized |  | Compound NOT metabolized |  | C#C[C@]1(O)CC[C@H]2[C@@H]3CCC4=CC(=O)CC[C@@H]4[C@H]3CC[C@@]21CC [LEVONORGESTREL] |  |  |  |  |  |
| Compound metabolized |  | Compound metabolized | Compound metabolized | Compound NOT metabolized | Compound NOT metabolized | Compound NOT metabolized | Compound NOT metabolized | Compound NOT metabolized | Compound NOT metabolized |  | Compound NOT metabolized | C#C[C@]1(OC(C)=O)CC[C@H]2[C@@H]3CCC4=CC(=O)CC[C@@H]4[C@H]3CC[C@@]21C [NORETHINDRONE ACETATE] |  |  |  |  |  |
